Here are results for eleven compounds from paper PMC8895762 (BMC Complementary Medicine and Therapies, 2022).

What all share (format): cell-based, Murine
The subject of data set [1] is NO production in LPS-stimulated RAW 264.7 macrophages. The experiment in a line: NO production by the Griess method. As to conditions: LPS 1 μg/mL; for IC50: RAW 264.7 macrophages, mean ± SD, n = 3; for inhibition at 40 µM: RAW264.7, read-out: NO inhibition rate; for inhibition at 40 µM / NO inhibition rate: 40 μM. As to the method: (§1) Murine RAW 264.7 macrophages were purchased from the American Tissue Culture Collection (Manassas, USA). These cells were incubated in DMEM supplemented with 10% FBS, 100 U/mL penicillin and 100 U/mL streptomycin in humidified 5% carbon dioxide (CO2) at 37 °C [16, 17].
The effects of 19 constituents on NO production in LPS-induced RAW 264.7 macrophages were determined using the Griess method. Prior to treatment, RAW 264.7 macrophages (5 × 10^3 cells/well) were seeded into 96-well plates and incubated for 24 h. […] After 1 h, cells were incubated with or without LPS at a concentration of 1 μg/mL at 37 °C for 24 h. After incubation, 50 μL of each supernatant solution was collected and mixed with equal volumes of Griess Reagent I and Griess Reagent II, respectively. The absorbance (A) was measured at 540 nm after 10 min of incubation at room temperature. The standard concentration of sodium nitrite was used to calculate the nitrite concentration. Moreover, the NO inhibition rate (%) = (ALPS − ALPS + sample)/(ALPS − Acontrol) × 100, where ALPS, ALPS + sample, and Acontrol are the absorbance of LPS model group, LPS + sample group, and DMEM group, respectively.
A general note: Nitrite, measured by Griess reagent, commonly stands in for NO production.

Data set [2] can be described thus: CCK-8 cell viability assay. The following applies: mouse. As to the method: as §1
(§2) The effects of 19 constituents on the viability of RAW 264.7 macrophages were assessed by CCK-8 assay. Prior to treatment, RAW 264.7 macrophages (5 × 10^3 cells/well) were seeded into 96-well plates and incubated for 24 h. All cultured cells were treated with or without 19 compounds at a concentration of 40 μM at 37 °C for 24 h. After incubation, 10 μL of CCK-8 solution was added to each well and incubated at 37 °C. After 2 h, the absorbance of each well was measured at 450 nm in a microplate reader. Cell viability was calculated using the following formular:
(§3) Cell viability (%) = Asample/Acontrol × 100, where Asample and Acontrol are the absorbance of cells treated with the compound and untreated cells, respectively. Moreover, the latter is expressed as 100% cell viability.
For orientation: Tetrazolium dyes change colour on reduction, which living cells bring about.

In the next data set the test system is RAW 264.7 macrophages. The experiment in a line: CCK-8 cell viability assay. The following applies: 40 μM, 24 h, RAW 264.7 macrophages, mean ± SD, n = 3. As to the method:
as §1, §2, §3

With `C[C@@H]1O[C@@H](OC[C@H]2O[C@@H](O[C@H]3[C@H](Oc4c(-c5ccc(O)cc5)oc5cc(O)cc(O)c5c4=O)O[C@H](CO)[C@@H](O)[C@@H]3O)[C@H](O)[C@@H](O)[C@@H]2O)[C@H](O)[C@H](O)[C@H]1O` [Compound 9, kaempferol-3-O-α-L-rhamnopyranosyl-(1 → 6)-β-D-glucopyranosyl-(1 → 2)-β-D-glucopyranoside], the IC50 (usually the concentration that gives 50% inhibition) in data set [1] (Mus musculus, RAW264.7, 24 h) was greater than 40 µM. In data set [1] (Mus musculus, 24 h), the inhibition (in general, the relative decrease from the control value, in per cent) at 40 µM was no more than 50%. Besides, the viability (as a rule, a read-out of living cells in per cent, often relative to untreated cells) at 24 h, 40 µM in data set [2] was determined as 90.7 ± 3.71%.
For `C[C@@H]1O[C@@H](OC[C@H]2O[C@@H](Oc3c(-c4ccc(O)cc4)oc4cc(O)cc(O)c4c3=O)[C@H](O[C@@H]3O[C@H](CO)[C@@H](O)[C@H](O)[C@H]3O)[C@@H](O)[C@@H]2O)[C@H](O)[C@H](O)[C@H]1O` [Compound 10, kaempferol-3-O-β-D-glucopyranosyl-(1 → 2)-[α-L-rhamnopyranosyl-(1 → 6)]-β-D-glucopyranoside] the same measures were greater than 40 µM, no more than 50% and 93.8 ± 5.06%.
In data set [1] (24 h), `C[C@@H]1O[C@@H](OC[C@H]2O[C@@H](OCCc3ccccc3)[C@H](O)[C@@H](O)[C@@H]2O)[C@H](O)[C@H](O)[C@H]1O` [Compound 19, phenethyl-O-rutinoside] registered an NO inhibition rate of no more than 50% and a half-inhibitory concentration (IC50) greater than 40 µM. Moreover, the “Cell viability (%)” value in the data set on RAW 264.7 macrophages was 92.30 ± 9.38%.
plantanone D [Compound 13] gave an IC50 in data set [1] (24 h) of 36.1 ± 3.77 µM. In the data set with RAW 264.7 macrophages, the “Cell viability (%)” value turned out to be 91.84 ± 1.11%.
In data set [1] (24 h), plantanone B [Compound 12] displayed an NO inhibition rate of no more than 50% and an IC50 greater than 40 µM. Also, in the data set on RAW 264.7 macrophages, the “Cell viability (%)” value is 91.93 ± 8.04%.
The like results for hostaflavanone A [Compound 16] were, in that order, no more than 50%, greater than 40 µM and 92.56 ± 1.97%.
The like results for `OC[C@H]1O[C@@H](OC[C@H]2O[C@@H](OCCc3ccccc3)[C@H](O)[C@@H](O)[C@@H]2O)[C@H](O)[C@@H](O)[C@@H]1O` [Compound 18, phenethanol-β-gentiobioside] were, in that order, no more than 50%, greater than 40 µM and 92.51 ± 5.62%.
`O=c1c(O[C@@H]2O[C@H](CO)[C@@H](O)[C@H](O)[C@H]2O[C@@H]2O[C@H](CO)[C@@H](O)[C@H](O)[C@H]2O)c(-c2ccc(O)cc2)oc2cc(O)cc(O)c12` [Compound 5, kaempferol-3-O-sophoroside] gave a 50% inhibitory concentration (IC50) in data set [1] (24 h) of 13.1 ± 1.61 µM. Moreover, the “Cell viability (%)” value in the data set with RAW 264.7 macrophages is on record as 93.48 ± 5.33%.
For the compound `C[C@@H]1O[C@@H](OC[C@H]2O[C@@H](Oc3c(-c4ccc(O)cc4)oc4cc(O[C@@H]5O[C@H](CO)[C@@H](O)[C@H](O)[C@H]5O)cc(O)c4c3=O)[C@H](O)[C@@H](O)[C@@H]2O)[C@H](O)[C@H](O)[C@H]1O` [Compound 8, kaempferol-3-O-rutinoside-7-O-glucopyranoside], the IC50 in data set [1] (24 h) is greater than 40 µM. In addition, in the data set with RAW 264.7 macrophages, the “Cell viability (%)” value is recorded as 95.48 ± 3.54%.
Compound `COc1cc(O)c2c(=O)c(O[C@@H]3O[C@H](CO)[C@@H](O)[C@H](O)[C@H]3O[C@@H]3O[C@H](CO)[C@@H](O)[C@H](O)[C@H]3O)c(-c3ccc(O)cc3)oc2c1` [Compound 6, plantanone A] came in with a 50% inhibitory concentration (IC50) in data set [1] (24 h) of 12.6 ± 0.76 µM. In addition, the “Cell viability (%)” value in the data set with RAW 264.7 macrophages was found to be 96.89 ± 1.04%.
`O=c1c(O[C@@H]2O[C@H](CO)[C@@H](O)[C@H](O)[C@H]2O[C@@H]2O[C@H](CO)[C@@H](O)[C@H](O)[C@H]2O)c(-c2ccc(O)cc2)oc2cc(O[C@@H]3O[C@H](CO)[C@@H](O)[C@H](O)[C@H]3O)cc(O)c12` [Compound 7, kaempferol-3-O-β-D-[β-D-glucopyranosyl-(1 → 2)-glucopyranoside]-7-O-β-D-glucopyranoside]: in data set [1] (24 h), the IC50 worked out at 26.5 ± 1.53 µM. Besides, the “Cell viability (%)” value in the data set with RAW 264.7 macrophages was 94.03 ± 4.52%.
